Assay results published in publication PMC7265341, “Quantifying CDK inhibitor selectivity in live cells” (Nature Communications, 2020).
Where two headings read alike, the source gives them in different places.

Experiments:
CDK1/Cyclin E1 = CDK1/Cyclin E1 (Homo sapiens, UniProt P06493); test: NanoBRET live-cell target engagement, CDK1-NanoLuc/Cyclin E1 in HEK-293; assay type: binding; details: CDK1/E1
CDK2/Cyclin E1 = CDK2/Cyclin E1 (Homo sapiens, UniProt P24941); test: NanoBRET live-cell target engagement, CDK2-NanoLuc/Cyclin E1 in HEK-293; assay type: binding; details: CDK2/E1
CDK3/Cyclin E1 = CDK3/Cyclin E1 (Homo sapiens, UniProt Q00526); test: NanoBRET live-cell target engagement, CDK3-NanoLuc/Cyclin E1 in HEK-293; assay type: binding
CDK4/Cyclin D1 = CDK4/Cyclin D1 (Homo sapiens, UniProt P11802); test: NanoBRET live-cell target engagement, NanoLuc-CDK4/Cyclin D1 in HEK-293; assay type: binding; details: CDK4/D1, 10µM
CDK5/CDK5R1 = CDK5/CDK5R1 (Homo sapiens, UniProt Q00535); test: NanoBRET live-cell target engagement, CDK5-NanoLuc/CDK5R1 in HEK-293; assay type: binding; details: CDK5/CDK5R1, 10µM
CDK6/Cyclin D1 = CDK6/Cyclin D1 (Homo sapiens, UniProt Q00534); test: NanoBRET live-cell target engagement, NanoLuc-CDK6/Cyclin D1 in HEK-293; assay type: binding; details: CDK6/D1
CDK7 = CDK7 (Homo sapiens, UniProt P50613); test: NanoBRET live-cell target engagement, NanoLuc-CDK7 in HEK-293; assay type: binding; details: CDK7
CDK8/Cyclin C = CDK8/Cyclin C (Homo sapiens, UniProt P49336); test: NanoBRET live-cell target engagement, NanoLuc-CDK8/Cyclin C in HEK-293; assay type: binding
CDK9/Cyclin K = CDK9/Cyclin K (Homo sapiens, UniProt P50750); test: NanoBRET live-cell target engagement, NanoLuc-CDK9/Cyclin K in HEK-293; assay type: binding; details: CDK9/K, 10µM
CDK11B/Cyclin L2 = CDK11B/Cyclin L2 (Homo sapiens, UniProt P21127); test: NanoBRET live-cell target engagement, CDK11B-NanoLuc/Cyclin L2 in HEK-293; assay type: binding; details: CDK11b/L2, 10µM
CDK12/Cyclin K = CDK12/Cyclin K (Homo sapiens, UniProt Q9NYV4); test: NanoBRET live-cell target engagement, CDK12-NanoLuc/Cyclin K in HEK-293; assay type: binding; details: CDK12/K, 10µM
CDK13/Cyclin K = CDK13/Cyclin K (Homo sapiens, UniProt Q14004); test: NanoBRET live-cell target engagement, CDK13-NanoLuc/Cyclin K in HEK-293; assay type: binding; details: CDK13/K, 10µM
CDK14/Cyclin Y = CDK14/Cyclin Y (Homo sapiens, UniProt O94921); test: NanoBRET live-cell target engagement, CDK14-NanoLuc/Cyclin Y in HEK-293; assay type: binding; details: CDK14/Y
CDK15/Cyclin Y = CDK15/Cyclin Y (Homo sapiens, UniProt Q96Q40); test: NanoBRET live-cell target engagement, NanoLuc-CDK15/Cyclin Y in HEK-293; assay type: binding; details: CDK15/Y, 10µM
CDK16/Cyclin Y = CDK16/Cyclin Y (Homo sapiens, UniProt Q00536); test: NanoBRET live-cell target engagement, CDK16-NanoLuc/Cyclin Y in HEK-293; assay type: binding; details: CDK16/Y
CDK17/Cyclin Y = CDK17/Cyclin Y (Homo sapiens, UniProt Q00537); test: NanoBRET live-cell target engagement, CDK17-NanoLuc/Cyclin Y in HEK-293; assay type: binding; details: CDK17/Y, 10µM
CDK18/Cyclin Y = CDK18/Cyclin Y (Homo sapiens, UniProt Q07002); test: NanoBRET live-cell target engagement, CDK18-NanoLuc/Cyclin Y in HEK-293; assay type: binding; details: CDK18/Y, 10µM
CDK20/Cyclin H = CDK20/Cyclin H (Homo sapiens, UniProt Q8IZL9); test: NanoBRET live-cell target engagement, NanoLuc-CDK20/Cyclin H in HEK-293; assay type: binding; details: CDK20/H, 10µM
CDK19/Cyclin C = CDK19/Cyclin C (Homo sapiens, UniProt Q9BWU1); test: NanoBRET live-cell target engagement, NanoLuc-CDK19/Cyclin C in HEK-293
CDK10/Cyclin L2 = CDK10/Cyclin L2 (Homo sapiens, UniProt Q15131); test: NanoBRET live-cell target engagement, CDK10-NanoLuc/Cyclin L2 in HEK-293; details: 10µM
[1] = average of replicates, read-out: Inhibition at 10µM (%) Average
[2] = read-out: Inhibition at 10µM (%) Replicate 1
[3] = read-out: Inhibition at 10µM (%) Replicate 2
[4] = n=3 average ± SEM, n=2 average to 2 significant figures, read-out: IC50 (nM) Average*
[5] = read-out: IC50 (nM) Replicate 1
[6] = read-out: IC50 (nM) Replicate 2
[7] = read-out: IC50 (nM) Replicate 3

Chain of CDK17/Cyclin Y (Q00537 whole entry): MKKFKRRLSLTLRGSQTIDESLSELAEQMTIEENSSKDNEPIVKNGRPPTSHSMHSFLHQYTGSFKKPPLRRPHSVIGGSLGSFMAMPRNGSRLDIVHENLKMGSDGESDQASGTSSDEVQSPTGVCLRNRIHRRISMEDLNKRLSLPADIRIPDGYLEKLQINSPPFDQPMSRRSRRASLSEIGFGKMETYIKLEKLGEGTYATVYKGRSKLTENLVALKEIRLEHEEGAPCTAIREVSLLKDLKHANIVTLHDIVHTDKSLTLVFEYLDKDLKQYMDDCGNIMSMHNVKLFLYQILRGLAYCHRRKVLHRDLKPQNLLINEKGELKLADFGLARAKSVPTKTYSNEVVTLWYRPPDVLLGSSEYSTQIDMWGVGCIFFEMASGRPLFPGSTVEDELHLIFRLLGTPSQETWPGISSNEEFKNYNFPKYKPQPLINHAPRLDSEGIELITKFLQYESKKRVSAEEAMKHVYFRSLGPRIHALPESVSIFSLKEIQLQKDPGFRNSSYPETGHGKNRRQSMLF
Chain of CDK17/Cyclin Y (Q8ND76 whole entry partner): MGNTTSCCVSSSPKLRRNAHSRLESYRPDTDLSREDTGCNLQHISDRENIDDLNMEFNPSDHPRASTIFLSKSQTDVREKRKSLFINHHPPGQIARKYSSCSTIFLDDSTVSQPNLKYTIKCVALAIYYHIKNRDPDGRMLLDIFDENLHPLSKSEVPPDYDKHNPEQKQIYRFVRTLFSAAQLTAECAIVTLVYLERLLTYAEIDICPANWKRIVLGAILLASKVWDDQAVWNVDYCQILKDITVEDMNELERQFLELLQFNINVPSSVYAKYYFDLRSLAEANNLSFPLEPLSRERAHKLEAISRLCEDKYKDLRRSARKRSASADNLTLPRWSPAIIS
Chain of CDK18/Cyclin Y (Q07002 whole entry): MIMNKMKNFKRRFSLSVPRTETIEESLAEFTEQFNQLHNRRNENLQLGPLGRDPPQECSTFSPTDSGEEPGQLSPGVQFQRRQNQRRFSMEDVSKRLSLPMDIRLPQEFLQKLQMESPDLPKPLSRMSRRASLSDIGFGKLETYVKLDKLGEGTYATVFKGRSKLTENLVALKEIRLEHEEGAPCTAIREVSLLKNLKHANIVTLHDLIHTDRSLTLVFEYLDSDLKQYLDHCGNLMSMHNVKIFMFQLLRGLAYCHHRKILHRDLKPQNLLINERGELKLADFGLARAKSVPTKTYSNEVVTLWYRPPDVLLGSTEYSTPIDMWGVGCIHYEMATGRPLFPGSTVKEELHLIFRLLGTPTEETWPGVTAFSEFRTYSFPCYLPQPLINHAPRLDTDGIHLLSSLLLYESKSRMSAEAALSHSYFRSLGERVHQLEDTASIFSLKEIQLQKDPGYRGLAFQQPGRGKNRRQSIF
Chain of CDK18/Cyclin Y (Q8ND76 whole entry partner): as the sequence (Q8ND76 whole entry partner) above
Chain of CDK14/Cyclin Y (O94921 whole entry): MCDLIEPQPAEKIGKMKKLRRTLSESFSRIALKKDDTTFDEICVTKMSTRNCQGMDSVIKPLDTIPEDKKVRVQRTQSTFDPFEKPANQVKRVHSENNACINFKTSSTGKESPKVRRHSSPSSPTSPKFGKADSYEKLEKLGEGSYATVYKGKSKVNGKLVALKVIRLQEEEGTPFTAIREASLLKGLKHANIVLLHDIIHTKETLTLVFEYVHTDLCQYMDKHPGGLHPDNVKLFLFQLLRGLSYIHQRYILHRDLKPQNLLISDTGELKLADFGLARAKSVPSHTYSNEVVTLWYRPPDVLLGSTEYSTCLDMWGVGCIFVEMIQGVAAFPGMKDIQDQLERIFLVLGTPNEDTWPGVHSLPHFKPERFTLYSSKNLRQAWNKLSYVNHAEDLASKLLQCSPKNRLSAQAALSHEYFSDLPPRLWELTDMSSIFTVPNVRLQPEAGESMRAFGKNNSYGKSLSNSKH
Chain of CDK14/Cyclin Y (Q8ND76 whole entry partner): as the sequence (Q8ND76 whole entry partner) above
Chain of CDK12/Cyclin K (Q9NYV4 1-1481 isoform Q9NYV4-2): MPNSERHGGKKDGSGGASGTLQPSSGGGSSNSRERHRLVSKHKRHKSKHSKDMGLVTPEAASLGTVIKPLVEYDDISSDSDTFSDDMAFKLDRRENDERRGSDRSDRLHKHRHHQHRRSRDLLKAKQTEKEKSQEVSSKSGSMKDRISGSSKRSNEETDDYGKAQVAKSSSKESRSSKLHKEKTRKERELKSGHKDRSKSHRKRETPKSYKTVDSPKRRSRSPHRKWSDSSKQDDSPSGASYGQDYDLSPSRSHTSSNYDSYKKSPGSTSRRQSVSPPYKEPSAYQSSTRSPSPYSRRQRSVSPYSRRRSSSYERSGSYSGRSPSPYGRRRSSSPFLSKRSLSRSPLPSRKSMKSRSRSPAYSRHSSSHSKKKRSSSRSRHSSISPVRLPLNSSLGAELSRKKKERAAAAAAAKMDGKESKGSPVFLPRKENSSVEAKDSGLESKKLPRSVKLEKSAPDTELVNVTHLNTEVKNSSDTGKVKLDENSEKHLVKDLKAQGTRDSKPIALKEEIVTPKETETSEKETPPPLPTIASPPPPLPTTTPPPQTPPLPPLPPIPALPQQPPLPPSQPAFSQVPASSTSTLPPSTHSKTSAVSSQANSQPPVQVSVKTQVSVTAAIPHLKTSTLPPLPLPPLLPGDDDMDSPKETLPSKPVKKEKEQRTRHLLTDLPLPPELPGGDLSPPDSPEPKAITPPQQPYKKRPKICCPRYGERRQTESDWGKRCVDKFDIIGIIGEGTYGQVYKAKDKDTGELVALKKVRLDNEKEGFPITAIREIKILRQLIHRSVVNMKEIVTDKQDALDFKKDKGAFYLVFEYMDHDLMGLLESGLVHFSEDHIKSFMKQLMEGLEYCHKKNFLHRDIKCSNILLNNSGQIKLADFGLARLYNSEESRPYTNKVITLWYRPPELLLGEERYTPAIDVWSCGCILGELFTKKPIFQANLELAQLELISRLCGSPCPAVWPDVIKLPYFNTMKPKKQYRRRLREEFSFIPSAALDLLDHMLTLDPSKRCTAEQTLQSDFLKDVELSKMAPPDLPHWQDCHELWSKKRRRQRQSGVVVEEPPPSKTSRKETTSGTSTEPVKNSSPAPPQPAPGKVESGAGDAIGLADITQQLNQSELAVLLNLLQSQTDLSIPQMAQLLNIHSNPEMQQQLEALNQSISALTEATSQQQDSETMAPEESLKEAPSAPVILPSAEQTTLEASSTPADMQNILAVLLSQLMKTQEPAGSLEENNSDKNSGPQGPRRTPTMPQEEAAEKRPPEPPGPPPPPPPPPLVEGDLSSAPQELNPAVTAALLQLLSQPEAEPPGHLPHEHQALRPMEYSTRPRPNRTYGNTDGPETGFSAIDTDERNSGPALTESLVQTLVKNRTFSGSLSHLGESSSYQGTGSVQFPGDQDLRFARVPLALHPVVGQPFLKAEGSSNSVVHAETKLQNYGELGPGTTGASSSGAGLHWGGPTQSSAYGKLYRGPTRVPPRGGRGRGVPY
Chain of CDK12/Cyclin K (O75909 whole entry partner): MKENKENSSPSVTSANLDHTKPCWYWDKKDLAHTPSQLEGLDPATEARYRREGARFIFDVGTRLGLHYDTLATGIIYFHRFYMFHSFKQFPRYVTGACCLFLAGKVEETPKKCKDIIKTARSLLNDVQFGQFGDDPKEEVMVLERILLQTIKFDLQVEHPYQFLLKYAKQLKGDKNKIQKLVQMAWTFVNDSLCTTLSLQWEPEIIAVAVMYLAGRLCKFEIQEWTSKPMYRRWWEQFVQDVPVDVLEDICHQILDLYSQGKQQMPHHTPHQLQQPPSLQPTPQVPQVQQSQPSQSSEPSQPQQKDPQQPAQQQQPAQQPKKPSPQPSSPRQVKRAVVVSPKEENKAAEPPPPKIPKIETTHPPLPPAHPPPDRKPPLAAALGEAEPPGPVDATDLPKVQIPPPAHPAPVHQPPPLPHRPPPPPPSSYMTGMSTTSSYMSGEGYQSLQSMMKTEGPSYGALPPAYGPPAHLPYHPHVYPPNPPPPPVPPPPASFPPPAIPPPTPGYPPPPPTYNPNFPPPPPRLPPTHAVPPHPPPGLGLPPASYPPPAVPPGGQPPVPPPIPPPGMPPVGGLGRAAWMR
Chain of CDK11B/Cyclin L2 (P21127 1-782 isoform P21127-2): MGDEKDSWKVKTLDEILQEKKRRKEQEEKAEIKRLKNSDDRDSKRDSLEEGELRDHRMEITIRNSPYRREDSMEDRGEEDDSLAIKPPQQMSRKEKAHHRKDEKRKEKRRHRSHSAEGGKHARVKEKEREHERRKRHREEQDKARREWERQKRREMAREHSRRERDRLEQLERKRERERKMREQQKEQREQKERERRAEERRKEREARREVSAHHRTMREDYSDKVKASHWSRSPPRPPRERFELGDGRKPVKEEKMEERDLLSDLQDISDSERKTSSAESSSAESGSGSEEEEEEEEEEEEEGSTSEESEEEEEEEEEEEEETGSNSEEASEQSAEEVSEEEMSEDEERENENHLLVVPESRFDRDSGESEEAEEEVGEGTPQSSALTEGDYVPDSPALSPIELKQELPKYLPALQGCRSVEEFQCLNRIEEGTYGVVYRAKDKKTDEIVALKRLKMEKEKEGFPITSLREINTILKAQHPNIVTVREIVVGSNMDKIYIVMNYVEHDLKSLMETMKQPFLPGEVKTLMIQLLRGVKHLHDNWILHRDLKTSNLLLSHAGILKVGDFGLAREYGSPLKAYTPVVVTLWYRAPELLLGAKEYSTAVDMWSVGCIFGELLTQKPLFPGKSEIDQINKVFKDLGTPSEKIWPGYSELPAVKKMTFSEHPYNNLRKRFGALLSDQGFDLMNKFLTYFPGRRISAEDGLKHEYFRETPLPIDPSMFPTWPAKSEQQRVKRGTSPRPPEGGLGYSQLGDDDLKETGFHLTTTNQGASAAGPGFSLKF

`CCCCOc1c(C(=O)c2c(F)cc(C)cc2F)c[nH]c2nncc1-2` [BMS-265246] gave an inhibition at 10 µM (CDK1/Cyclin E1; [1]) of 44.4%, an inhibition at 10 µM (CDK1/Cyclin E1; [2]) of 65.6% and an inhibition at 10 µM (CDK1/Cyclin E1; [3]) of 23.1%. The IC50 (CDK1/Cyclin E1; [4]) was 50 ± 20 nM, the IC50 (CDK1/Cyclin E1; [5]) was 95 nM and the IC50 (CDK1/Cyclin E1; [6]) was 39 nM. It also gave an IC50 (CDK1/Cyclin E1; [7]) of 11 nM, an inhibition at 10 µM (CDK2/Cyclin E1; [1]) of 80.1% and an inhibition at 10 µM (CDK2/Cyclin E1; [2]) of 77.4%. It also gave an inhibition at 10 µM (CDK2/Cyclin E1; [3]) of 82.8%, an IC50 (CDK2/Cyclin E1; [4]) of 22 ± 8 nM and an IC50 (CDK2/Cyclin E1; [5]) of 29 nM. For the same molecule, the IC50 (CDK2/Cyclin E1; [6]) was 31 nM, the IC50 (CDK2/Cyclin E1; [7]) was 6.6 nM and the inhibition at 10 µM (CDK3/Cyclin E1; CDK3/E1, average of replicates, read-out: Inhibition at 10µM (%) Average) was 74%. The inhibition at 10 µM (CDK3/Cyclin E1; CDK3/E1, read-out: Inhibition at 10µM (%) Replicate 1) was 81.9%, the inhibition at 10 µM (CDK3/Cyclin E1; CDK3/E1, read-out: Inhibition at 10µM (%) Replicate 2) was 66% and the IC50 (CDK3/Cyclin E1; CDK3/E1, read-out: IC50 (nM) Replicate 1) was 6.5 nM. It also gave an IC50 (CDK3/Cyclin E1; CDK3/E1, read-out: IC50 (nM) Replicate 2) of 14 nM, an IC50 (CDK3/Cyclin E1; CDK3/E1, read-out: IC50 (nM) Replicate 3) of 9.2 nM and an IC50 (CDK3/Cyclin E1; live HEK-293, 2 h, mean ± S.E.M. (n=3) or mean (n=2), read-out: IC50 for CDK/cyclin complexes, CDK3/E1) of 10 nM. For the same molecule, the inhibition at 10 µM (CDK4/Cyclin D1; [1]) was 49.1%, the inhibition at 10 µM (CDK4/Cyclin D1; [2]) was 49% and the inhibition at 10 µM (CDK4/Cyclin D1; [3]) was 49.3%. It also gave an inhibition at 10 µM (CDK5/CDK5R1; [1]) of 35.1%, an inhibition at 10 µM (CDK5/CDK5R1; [2]) of 36.3% and an inhibition at 10 µM (CDK5/CDK5R1; [3]) of 33.9%. For the same molecule, the inhibition at 10 µM (CDK6/Cyclin D1; [1]) was 68%, the inhibition at 10 µM (CDK6/Cyclin D1; [2]) was 64.1% and the inhibition at 10 µM (CDK6/Cyclin D1; [3]) was 71.8%. It also gave an IC50 (CDK6/Cyclin D1; [4]) of 100 ± 30 nM, an IC50 (CDK6/Cyclin D1; [5]) of 63 nM and an IC50 (CDK6/Cyclin D1; [6]) of 70 nM. It also gave an IC50 (CDK6/Cyclin D1; [7]) of 152 nM, an inhibition at 10 µM (CDK7; [1]) of 43.7% and an inhibition at 10 µM (CDK7; [2]) of 21%. It also gave an inhibition at 10 µM (CDK7; [3]) of 66.3%, an IC50 (CDK7; [4]) of 180 ± 10 nM and an IC50 (CDK7; [5]) of 160 nM. It also gave an IC50 (CDK7; [6]) of 170 nM, an IC50 (CDK7; [7]) of 197 nM and an inhibition at 10 µM (CDK8/Cyclin C; CDK8/C, average of replicates, read-out: Inhibition at 10µM (%) Average) of 95.1%. It also gave an inhibition at 10 µM (CDK8/Cyclin C; CDK8/C, read-out: Inhibition at 10µM (%) Replicate 1) of 97.6%, an inhibition at 10 µM (CDK8/Cyclin C; CDK8/C, read-out: Inhibition at 10µM (%) Replicate 2) of 92.5% and an IC50 (CDK8/Cyclin C; CDK8/C, read-out: IC50 (nM) Replicate 1) of 1.2 nM. The IC50 (CDK8/Cyclin C; CDK8/C, read-out: IC50 (nM) Replicate 2) was 0.45 nM, the IC50 (CDK8/Cyclin C; CDK8/C, read-out: IC50 (nM) Replicate 3) was 0.5 nM and the IC50 (CDK8/Cyclin C; live HEK-293, 2 h, mean ± S.E.M. (n=3) or mean (n=2), read-out: IC50 for CDK/cyclin complexes, CDK8/C) was 0.7 nM. For the same molecule, the Kd (CDK8/Cyclin C; live HEK-293, read-out: Kd-apparent, CDK8 live-cell occupancy) was less than 2 nM, the inhibition at 10 µM (CDK9/Cyclin K; [1]) was 26.1% and the inhibition at 10 µM (CDK9/Cyclin K; [2]) was 31%. It also gave an inhibition at 10 µM (CDK9/Cyclin K; [3]) of 21.3%, an inhibition at 10 µM (CDK11B/Cyclin L2; [1]) of 11.8% and an inhibition at 10 µM (CDK11B/Cyclin L2; [2]) of 9.8%. The inhibition at 10 µM (CDK11B/Cyclin L2; [3]) was 13.8%, the inhibition at 10 µM (CDK12/Cyclin K; [1]) was 5.2% and the inhibition at 10 µM (CDK12/Cyclin K; [2]) was 12.3%. For the same molecule, the inhibition at 10 µM (CDK12/Cyclin K; [3]) was -1.9%, the inhibition at 10 µM (CDK13/Cyclin K; [1]) was 12.6% and the inhibition at 10 µM (CDK13/Cyclin K; [2]) was 10.5%. It also gave an inhibition at 10 µM (CDK13/Cyclin K; [3]) of 14.7%, an inhibition at 10 µM (CDK14/Cyclin Y; [1]) of 43.5% and an inhibition at 10 µM (CDK14/Cyclin Y; [2]) of 68.1%. The inhibition at 10 µM (CDK14/Cyclin Y; [3]) was 18.8%, the IC50 (CDK14/Cyclin Y; [4]) was 200 ± 200 nM and the IC50 (CDK14/Cyclin Y; [5]) was 10 nM. For the same molecule, the IC50 (CDK14/Cyclin Y; [6]) was 100 nM, the IC50 (CDK14/Cyclin Y; [7]) was 570 nM and the inhibition at 10 µM (CDK15/Cyclin Y; [1]) was 35.1%. It also gave an inhibition at 10 µM (CDK15/Cyclin Y; [2]) of 51.3%, an inhibition at 10 µM (CDK15/Cyclin Y; [3]) of 19% and an inhibition at 10 µM (CDK16/Cyclin Y; [2]) of 70.8%. It also gave an inhibition at 10 µM (CDK16/Cyclin Y; [3]) of 76.5%, an IC50 (CDK16/Cyclin Y; [4]) of 50 ± 20 nM and an IC50 (CDK16/Cyclin Y; [5]) of 5.7 nM. For the same molecule, the IC50 (CDK16/Cyclin Y; [6]) was 63 nM, the IC50 (CDK16/Cyclin Y; [7]) was 79 nM and the inhibition at 10 µM (CDK17/Cyclin Y; [1]) was 75.2%. It also gave an inhibition at 10 µM (CDK17/Cyclin Y; [2]) of 71.1%, an inhibition at 10 µM (CDK17/Cyclin Y; [3]) of 79.2% and an inhibition at 10 µM (CDK18/Cyclin Y; [1]) of 89.2%. It also gave an inhibition at 10 µM (CDK18/Cyclin Y; [2]) of 86.5%, an inhibition at 10 µM (CDK18/Cyclin Y; [3]) of 92% and an inhibition at 10 µM (CDK20/Cyclin H; [2]) of 14.5%. For the same molecule, the inhibition at 10 µM (CDK20/Cyclin H; [3]) was -14.1%, the Kd (CDK19/Cyclin C) was less than 2 nM and the IC50 (CDK19/Cyclin C; IC50 (nM) Average*, CDK19/Y, n=3 average ± SEM, n=2 average to 2 significant figures) was 1.47 ± 0.09 nM. It also gave an IC50 (CDK19/Cyclin C; IC50 (nM) Replicate 2, CDK19/C) of 1.6 nM, an IC50 (CDK19/Cyclin C; IC50 (nM) Replicate 3, CDK19/C) of 1.3 nM and an IC50 (CDK19/Cyclin C; IC50 for CDK/cyclin complexes, CDK19/C, live HEK-293, 2 h, mean ± S.E.M. (n=3) or mean (n=2)) of 1.5 nM. It also gave an inhibition at 10 µM (CDK19/Cyclin C; read-out: Inhibition at 10µM (%) Average, CDK19/C, average of replicates) of 95.1%, an inhibition at 10 µM (CDK19/Cyclin C; read-out: Inhibition at 10µM (%) Replicate 1, CDK19/C) of 98.1% and an inhibition at 10 µM (CDK19/Cyclin C; read-out: Inhibition at 10µM (%) Replicate 2, CDK19/C) of 92.2%. The inhibition at 10 µM (CDK10/Cyclin L2; read-out: Inhibition at 10µM (%) Average, CDK10/L2, average of replicates) was 11.1%, the inhibition at 10 µM (CDK10/Cyclin L2; read-out: Inhibition at 10µM (%) Replicate 1, CDK10/L2) was 5.3% and the inhibition at 10 µM (CDK10/Cyclin L2; read-out: Inhibition at 10µM (%) Replicate 2, CDK10/L2) was 17%.
